Results from patent publication US10822415B2, “Methods for enhancing the potency of the immune checkpoint inhibitors” (INSERM (INSTITUT NATIONAL DE LA SANTÉ ET DE LA RECHERCHE …, priority 2016, dated 2020).

Experiments:
[1] = tested on: Yumm murine melanoma cells; experiment: SKI-I treatment with or without immune checkpoint antibody in mice with untransfected Yumm tumors; type: in vivo; conditions: mice harboring Yumm tumors, SKI-I combined with anti-PD-1
Protocol: Animal experiments were conducted in accordance with national and international policies, and our protocol was approved by the Regional Ethics Committee of Midi-Pyrenees. 3.105 of Yumm cell lines (Untransfected, shCtrl, shSK1 or shSK1(2)) were intradermally injected into the flank of 7-week-old C57BL/6 mice (Charles River, L'Arbresle, France). CD8-deficient C57BL/6 mice were a gift from Prof. J. van Meerwijk (INSERM U1043, Toulouse, France). Tumor volume was calculated using a caliper at the indicated days as described (Albinet, Bats et al. 2014). For combination experiments involving shCtrl or shSK1 Yumm cells, mice were challenged intradermally (i.d.) with 3.105 cells on day 0 on their right flank. Mice were then injected i.p. three times with anti-CTLA-4 (200 μg per mouse on D7 and 100 μg per mouse on D10 and D13), and/or with anti-PD-1 or isotype control antibody (200 μg per mouse on D5, D7 and D10). Tumor volumes were measured every 2-3 days. Anti-CTLA-4 (9H10), anti-PD-1 (RMP1-14) and isotype control (2A3) were purchased from BioXcell.
For SKI-I treatment, 5 days after Yumm or MC38 cell implantation, mice were treated or not with 50 mg/kg SKI-I (N′-[(2-hydroxynaphthalen-1-yl)methylidene]-3-(naphthalen-2-yl)-1H-pyrazole-5-carbohydrazide, Enamine) in 50 μl of a mixture of DMSO (10%), Cremophor (5%), Tween-80 (5%) and glucose (80%) (i.p.). […]

S1PR1 = S1PR1 (Mus musculus, UniProt O08530); conditions: mice; by inhibiting tumor vascularization; cited from earlier work
Sequence of S1PR1 (O08530 whole entry): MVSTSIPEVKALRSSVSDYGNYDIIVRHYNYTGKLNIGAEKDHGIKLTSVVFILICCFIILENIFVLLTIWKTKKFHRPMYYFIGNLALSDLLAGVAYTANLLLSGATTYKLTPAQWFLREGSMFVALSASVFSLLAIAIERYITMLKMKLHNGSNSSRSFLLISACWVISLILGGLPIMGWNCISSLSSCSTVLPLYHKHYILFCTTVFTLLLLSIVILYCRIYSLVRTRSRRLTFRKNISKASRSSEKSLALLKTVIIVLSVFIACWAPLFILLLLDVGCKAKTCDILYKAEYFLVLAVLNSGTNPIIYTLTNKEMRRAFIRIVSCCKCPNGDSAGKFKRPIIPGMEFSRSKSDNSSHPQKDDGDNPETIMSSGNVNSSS

SMILES | efficacy of anti-PD-1 (tumor growth) [1] | melanoma progression (S1PR1)
O=C(N/N=C/c1c(O)ccc2ccccc12)c1cc(-c2ccc3ccccc3c2)n[nH]1 [SKI-I, N′-[(2-hydroxynaphthalen-1-yl)methylidene]-3-(naphthalen-2-yl)-1H-pyrazole-5-carbohydrazide] | enhanced the efficacy of anti-PD-1 | –
CCCCCCCCc1ccc(CCC(N)(CO)CO)cc1 [FTY720] | – | reduced melanoma progression
